The source made the active and inactive calls.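 How the source made its calls: active means Positive modulators of the M5 receptor in a calcium signal test, half-maximal potency under 10 µM; inactive means the rest.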

Usually EC50 stands for the concentration giving half of the maximal effect.

Muscarinic acetylcholine receptor M5 (Homo sapiens), sequence (P08912 whole entry, looked up): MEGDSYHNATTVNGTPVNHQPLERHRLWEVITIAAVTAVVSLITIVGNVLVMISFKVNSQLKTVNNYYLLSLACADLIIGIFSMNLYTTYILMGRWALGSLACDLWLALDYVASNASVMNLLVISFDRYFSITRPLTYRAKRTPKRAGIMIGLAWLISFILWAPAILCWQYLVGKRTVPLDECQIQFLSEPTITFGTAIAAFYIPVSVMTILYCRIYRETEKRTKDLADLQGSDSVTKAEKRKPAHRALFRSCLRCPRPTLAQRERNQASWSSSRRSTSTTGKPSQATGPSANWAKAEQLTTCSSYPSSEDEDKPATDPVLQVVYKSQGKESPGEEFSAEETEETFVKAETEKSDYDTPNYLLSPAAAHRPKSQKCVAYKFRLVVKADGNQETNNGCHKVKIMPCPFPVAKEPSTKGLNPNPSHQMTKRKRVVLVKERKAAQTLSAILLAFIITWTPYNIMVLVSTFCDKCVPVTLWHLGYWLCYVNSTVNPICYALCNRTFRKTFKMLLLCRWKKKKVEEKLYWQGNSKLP

The first assay concerns the target Muscarinic acetylcholine receptor M5 (Homo sapiens) (UniProt P08912). The assay can be described thus: potentiation of ACh response at human M5 – cell-based, concentration-response curve, dose response (AID 651878). Conditions: CHO-K1 hM5, Fluo-4 calcium flux, ACh EC20 potentiation. A general note: Calcium assays in cells follow changes in intracellular calcium, usually with a dye or a luminescent sensor.
In the case of `COc1ccc(CN2C(=O)C(O)(C[N+](=O)[O-])c3cc(OC(F)(F)F)ccc32)cc1` (configuration not stated), the half-maximal effective concentration (EC50) is 1.38 µM.

In the case of `COc1ccc(CN2C(=O)C(O)(c3ccc(F)nc3)c3cc(OC(F)(F)F)ccc32)cc1` (configuration not stated), the EC50 is 2.19 µM.

Still in this assay, the particulars now being: CHO-K1 hM5, Fluo-4 calcium flux, ACh EC20 potentiation; at 31.6 µM (top of the series).
As to `COc1ncc(-c2ccc(CN3C(=O)C(=O)c4cc(OC(F)(F)F)ccc43)cc2)cn1`, the % ACh max response is 74.4%.

For the compound `COc1ccc(CN2C(=O)C3(COC3)c3cc(OC(F)(F)F)ccc32)cc1`, the “% ACh max response” value was “inactive”.

Regarding `COc1ccc(CN2C(=O)C(CO)(CO)c3cc(OC(F)(F)F)ccc32)cc1`, the “% ACh max response” value was “inactive”.

For the compound `COc1ccc(-c2ccc(CN3C(=O)C(=O)c4cc(OC(F)(F)F)ccc43)cc2)cn1`, the % ACh max response was 71.9%.

Consider `COc1ccc(CN2C(=O)C(O)(c3ccc(N(C)C)nc3)c3cc(OC(F)(F)F)ccc32)cc1` (configuration not stated), for which the “% ACh max response” value was “inactive”.

Source of the values: PubChem BioAssay AID651878 (Vanderbilt Specialized Chemistry Center, 2012).
